The results in this text go back to patent publication US20200231638A1, “STABILIZED ANTI-MICROBIAL PEPTIDES” (priority 2015, published 2020).

The subject of data set [1] is B. cereus. In kind it is cell-based, Bacillus cereus. In a few lines: (§1)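 MIC read as the minimum peptide concentration showing no visible growth after 20-24 hours at 37° C. Cultures were grown overnight, then regrown several hours before testing. Medium was MHB refined by anion exchange to strip polyanions; final inoculum 5×10^5 CFU/ml.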
For data set [2], the system named is E. coli. The data set is classed as cell-based, Escherichia coli. The method in brief: as §1
Data set [3] has as its system human red blood cells. In kind it is cell-based. To be noted: red cells of human, 1 h, 25. The method in brief: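 Washed human RBCs as 1% (v/v) suspension in phosphate-buffered saline incubated 1 h at 37° C with serially diluted peptides. Hemoglobin release in supernatant measured spectrophotometrically (570 nm), % hemolysis relative to untreated and 1% Triton-X100 controls; MHC defined as concentration giving less than 1% release.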

The test system of data set [4] is P. aeruginosa. In kind it is cell-based, Pseudomonas aeruginosa. The method in brief:
as §1

Data set [5] deals with S. aureus. In kind it is cell-based, Staphylococcus aureus. The method in brief:
as §1

Structures are written as SMILES. Bridge positions count the residues as written; N and C are the ends. Square brackets hold non-standard residues; d marks the D form. Peptide text beside a SMILES is read from it. S5 = C=CCCC[C@](C)(N)C(=O)O; Nle = CCCC[C@H](N)C(=O)O

Take `CCCC[C@H](NC(=O)[C@]1(C)CCCC=CCCC[C@](C)(NC(=O)[C@H](Cc2c[nH]cn2)NC(=O)[C@H](CCCCN)NC(=O)CNC(=O)[C@H](Cc2ccccc2)NC(=O)[C@H](CCCCN)NC(=O)[C@H](CCCCN)NC(=O)[C@H](C)NC(=O)[C@H](CO)NC(=O)[C@H](Cc2c[nH]cn2)NC(=O)[C@H](CC(C)C)NC(=O)[C@H](Cc2ccccc2)NC(=O)[C@H](CCCCN)NC(=O)CNC(=O)[C@@H](NC(=O)CN)[C@@H](C)CC)C(=O)N[C@@H](C(C)C)C(=O)NCC(=O)N[C@@H](CCC(=O)O)C(=O)N1)C(=O)N[C@@H](CC(N)=O)C(=O)N[C@@H](CO)C(N)=O` [Mag(i + 4)15(A15H), GIGKFLHSAKKFGKHXVGEXBNS] (H-GIGKFLHSAKKFGKH[S5]VGE[S5][Nle]NS-NH2; staple 16-20): in data set [1], the “MIC B. cereus” value came to 6.2 µg/mL. For the same molecule, the “MIC E. coli” value in data set [2] worked out at 3.1 µg/mL. In addition, the “% Hemolysis at 25 μg/ml” value in data set [3] is 4.7%. Moreover, the “MIC P. aeruginosa” value in data set [4] worked out at 12.5 µg/mL. The “MIC S. aureus” value in data set [5] stood at 12.5 µg/mL.
With `CCCC[C@H](NC(=O)[C@]1(C)CCCC=CCCC[C@](C)(NC(=O)[C@H](CCCCN)NC(=O)[C@H](CCCCN)NC(=O)CNC(=O)[C@H](Cc2ccccc2)NC(=O)[C@H](CCCCN)NC(=O)[C@H](CCCCN)NC(=O)[C@H](C)NC(=O)[C@H](CO)NC(=O)[C@H](Cc2c[nH]cn2)NC(=O)[C@H](CC(C)C)NC(=O)[C@H](Cc2ccccc2)NC(=O)[C@H](CCCCN)NC(=O)CNC(=O)[C@@H](NC(=O)CN)[C@@H](C)CC)C(=O)N[C@@H](C(C)C)C(=O)NCC(=O)N[C@@H](CCC(=O)O)C(=O)N1)C(=O)N[C@@H](CC(N)=O)C(=O)N[C@@H](CO)C(N)=O` [Mag(i + 4)15(A15K), GIGKFLHSAKKFGKKXVGEXBNS] (H-GIGKFLHSAKKFGKK[S5]VGE[S5][Nle]NS-NH2; staple 16-20), in data set [1], the “MIC B. cereus” value amounted to 6.2 µg/mL. Moreover, in data set [2], the “MIC E. coli” value was found to be 3.1 µg/mL. The “% Hemolysis at 25 μg/ml” value in data set [3] is reported as 4.1%. In addition, the “MIC P. aeruginosa” value in data set [4] worked out at 3.1 µg/mL. Moreover, the “MIC S. aureus” value in data set [5] worked out at 25 µg/mL.
As to `CC[C@H](C)[C@H](NC(=O)CN)C(=O)NCC(=O)N[C@@H](CCCCN)C(=O)N[C@@H](Cc1ccccc1)C(=O)N[C@@H](CC(C)C)C(=O)N[C@@H](Cc1c[nH]cn1)C(=O)N[C@@H](CO)C(=O)N[C@@H](C)C(=O)N[C@@H](CCCCN)C(=O)N[C@@H](CCCCN)C(=O)N[C@@H](Cc1ccccc1)C(=O)NCC(=O)N[C@@H](CCCCN)C(=O)N[C@@H](C)C(=O)N[C@@]1(C)CCCC=CCCC[C@@](C)(C(=O)N[C@@H](CCC(=O)O)C(=O)N[C@@H](CC(N)=O)C(=O)N[C@@H](CO)C(N)=O)NC(=O)[C@H](CCC(=O)O)NC(=O)CNC(=O)[C@H](C(C)C)NC1=O` [Mag(i + 4)15(B21E), GIGKFLHSAKKFGKAXVGEXENS] (H-GIGKFLHSAKKFGKA[S5]VGE[S5]ENS-NH2; staple 16-20), the “MIC B. cereus” value in data set [1] was over 50 µg/mL. Further, the “MIC E. coli” value in data set [2] turned out to be 25 µg/mL. Moreover, the “% Hemolysis at 25 μg/ml” value in data set [3] is 0.8%. Also, the “MIC P. aeruginosa” value in data set [4] is over 50 µg/mL. Moreover, the “MIC S. aureus” value in data set [5] was over 50 µg/mL.
In the case of `CC[C@H](C)[C@H](NC(=O)CN)C(=O)NCC(=O)N[C@@H](CCCCN)C(=O)N[C@@H](Cc1ccccc1)C(=O)N[C@@H](CC(C)C)C(=O)N[C@@H](Cc1c[nH]cn1)C(=O)N[C@@H](CO)C(=O)N[C@@H](C)C(=O)N[C@@H](CCCCN)C(=O)N[C@@H](CCCCN)C(=O)N[C@@H](Cc1ccccc1)C(=O)NCC(=O)N[C@@H](CCCCN)C(=O)N[C@@H](C)C(=O)N[C@@]1(C)CCCC=CCCC[C@@](C)(C(=O)N[C@@H](CCCCN)C(=O)N[C@@H](CC(N)=O)C(=O)N[C@@H](CO)C(N)=O)NC(=O)[C@H](CCC(=O)O)NC(=O)CNC(=O)[C@H](C(C)C)NC1=O` [Mag(i + 4)15(B21K), GIGKFLHSAKKFGKAXVGEXKNS] (H-GIGKFLHSAKKFGKA[S5]VGE[S5]KNS-NH2; staple 16-20), the “MIC B. cereus” value in data set [1] came to 25 µg/mL. In data set [2], the “MIC E. coli” value was determined as 1.6 µg/mL. In data set [3], the “% Hemolysis at 25 μg/ml” value is 3.7%. Besides, the “MIC P. aeruginosa” value in data set [4] was determined as 6.2 µg/mL. Besides, in data set [5], the “MIC S. aureus” value is over 50 µg/mL.
For `CCCC[C@H](NC(=O)[C@]1(C)CCCC=CCCC[C@](C)(NC(=O)[C@H](C)NC(=O)[C@H](CCC(=O)O)NC(=O)CNC(=O)[C@H](Cc2ccccc2)NC(=O)[C@H](CCCCN)NC(=O)[C@H](CCCCN)NC(=O)[C@H](C)NC(=O)[C@H](CO)NC(=O)[C@H](Cc2c[nH]cn2)NC(=O)[C@H](CC(C)C)NC(=O)[C@H](Cc2ccccc2)NC(=O)[C@H](CCCCN)NC(=O)CNC(=O)[C@@H](NC(=O)CN)[C@@H](C)CC)C(=O)N[C@@H](C(C)C)C(=O)NCC(=O)N[C@@H](CCC(=O)O)C(=O)N1)C(=O)N[C@@H](CC(N)=O)C(=O)N[C@@H](CO)C(N)=O` [Mag(i + 4)15(E14E), GIGKFLHSAKKFGEAXVGEXBNS] (H-GIGKFLHSAKKFGEA[S5]VGE[S5][Nle]NS-NH2; staple 16-20), in that order: 50 µg/mL, 12.5 µg/mL, 3.3%, over 50 µg/mL and over 50 µg/mL.
For `CCCC[C@H](NC(=O)[C@]1(C)CCCC=CCCC[C@](C)(NC(=O)[C@H](C)NC(=O)[C@H](CCCCN)NC(=O)CNC(=O)[C@H](Cc2ccccc2)NC(=O)[C@H](CCCCN)NC(=O)[C@H](CCCCN)NC(=O)[C@H](C)NC(=O)[C@H](CO)NC(=O)[C@H](Cc2c[nH]cn2)NC(=O)[C@H](CC(C)C)NC(=O)[C@H](Cc2ccccc2)NC(=O)[C@H](CCCCN)NC(=O)CNC(=O)[C@@H](NC(=O)CN)[C@@H](C)CC)C(=O)N[C@@H](C(C)C)C(=O)NCC(=O)N[C@@H](CCCCN)C(=O)N1)C(=O)N[C@@H](CC(N)=O)C(=O)N[C@@H](CO)C(N)=O` [Mag(i + 4)15(E19K), GIGKFLHSAKKFGKAXVGKXBNS] (H-GIGKFLHSAKKFGKA[S5]VGK[S5][Nle]NS-NH2; staple 16-20), in that order: 6.2 µg/mL, 1.6 µg/mL, 7.1%, 3.1 µg/mL and 12.5 µg/mL.
For `CCCC[C@H](NC(=O)[C@]1(C)CCCC=CCCC[C@](C)(NC(=O)[C@H](C)NC(=O)[C@H](CCCCN)NC(=O)CNC(=O)[C@H](Cc2ccccc2)NC(=O)[C@H](CCCCN)NC(=O)[C@H](CCCCN)NC(=O)[C@H](C)NC(=O)[C@H](CO)NC(=O)[C@H](Cc2c[nH]cn2)NC(=O)[C@H](CC(C)C)NC(=O)[C@H](CCCCN)NC(=O)[C@H](CCCCN)NC(=O)CNC(=O)[C@@H](NC(=O)CN)[C@@H](C)CC)C(=O)N[C@@H](C(C)C)C(=O)NCC(=O)N[C@@H](CCC(=O)O)C(=O)N1)C(=O)N[C@@H](CC(N)=O)C(=O)N[C@@H](CO)C(N)=O` [Mag(i + 4)15(F5K), GIGKKLHSAKKFGRAXVGEXBNS] (H-GIGKKLHSAKKFGKA[S5]VGE[S5][Nle]NS-NH2; staple 16-20; N-terminus and C-terminus assumed) the same measures were over 50 µg/mL, 3.1 µg/mL, 1.7%, 12.5 µg/mL and over 50 µg/mL.
Consider `CCCC[C@H](NC(=O)[C@]1(C)CCCC=CCCC[C@](C)(NC(=O)[C@H](C)NC(=O)[C@H](CCCCN)NC(=O)CNC(=O)[C@H](CCC(=O)O)NC(=O)[C@H](CCCCN)NC(=O)[C@H](CCCCN)NC(=O)[C@H](C)NC(=O)[C@H](CO)NC(=O)[C@H](Cc2c[nH]cn2)NC(=O)[C@H](CC(C)C)NC(=O)[C@H](Cc2ccccc2)NC(=O)[C@H](CCCCN)NC(=O)CNC(=O)[C@@H](NC(=O)CN)[C@@H](C)CC)C(=O)N[C@@H](C(C)C)C(=O)NCC(=O)N[C@@H](CCC(=O)O)C(=O)N1)C(=O)N[C@@H](CC(N)=O)C(=O)N[C@@H](CO)C(N)=O` [Mag(i + 4)15(F12E), GIGKFLHSAKKEGKAXVGEXBNS] (H-GIGKFLHSAKKEGKA[S5]VGE[S5][Nle]NS-NH2; staple 16-20), for which, in data set [1], the “MIC B. cereus” value was over 50 µg/mL. Moreover, the “MIC E. coli” value in data set [2] is 50 µg/mL. Further, in data set [3], the “% Hemolysis at 25 μg/ml” value is 0.6%. Besides, the “MIC P. aeruginosa” value in data set [4] was over 50 µg/mL. In data set [5], the “MIC S. aureus” value was over 50 µg/mL.
With `CCCC[C@H](NC(=O)[C@]1(C)CCCC=CCCC[C@](C)(NC(=O)[C@H](C)NC(=O)[C@H](CCCCN)NC(=O)CNC(=O)[C@H](CCCCN)NC(=O)[C@H](CCCCN)NC(=O)[C@H](CCCCN)NC(=O)[C@H](C)NC(=O)[C@H](CO)NC(=O)[C@H](Cc2c[nH]cn2)NC(=O)[C@H](CC(C)C)NC(=O)[C@H](Cc2ccccc2)NC(=O)[C@H](CCCCN)NC(=O)CNC(=O)[C@@H](NC(=O)CN)[C@@H](C)CC)C(=O)N[C@@H](C(C)C)C(=O)NCC(=O)N[C@@H](CCC(=O)O)C(=O)N1)C(=O)N[C@@H](CC(N)=O)C(=O)N[C@@H](CO)C(N)=O` [Mag(i + 4)15(F12K), GIGKFLHSAKKKGKAXVGEXBNS] (H-GIGKFLHSAKKKGKA[S5]VGE[S5][Nle]NS-NH2; staple 16-20), the “MIC B. cereus” value in data set [1] is over 50 µg/mL. Moreover, in data set [2], the “MIC E. coli” value is 3.1 µg/mL. Besides, the “% Hemolysis at 25 μg/ml” value in data set [3] is 2.0%. Further, in data set [4], the “MIC P. aeruginosa” value was found to be 12.5 µg/mL. The “MIC S. aureus” value in data set [5] is over 50 µg/mL.
